# Laboratory results as given in the kinase profiling compilation of Christmann-Franck et al. (2016).
# What was measured:
# Assay in all cases: radiometric filter-binding kinase assay, Kinase HotSpot
# Conditions in all cases: compound 0.5 µM; ATP 10 µM
# GRK6 (human) = GRK6 (human) (UniProt P43250)
# RPS6KA5 KD2 (human) = RPS6KA5 KD2 (human) (UniProt O75582)
# NEK3 (human) = NEK3 (human) (UniProt P51956)
# EPHB1 (human) = EPHB1 (human) (UniProt P54762)
# ADRBK2 (human) = ADRBK2 (human) (UniProt P35626)
# NEK6 (human) = NEK6 (human) (UniProt Q9HC98)
# Chain of NEK6 (human) (Q9HC98 whole entry, looked up): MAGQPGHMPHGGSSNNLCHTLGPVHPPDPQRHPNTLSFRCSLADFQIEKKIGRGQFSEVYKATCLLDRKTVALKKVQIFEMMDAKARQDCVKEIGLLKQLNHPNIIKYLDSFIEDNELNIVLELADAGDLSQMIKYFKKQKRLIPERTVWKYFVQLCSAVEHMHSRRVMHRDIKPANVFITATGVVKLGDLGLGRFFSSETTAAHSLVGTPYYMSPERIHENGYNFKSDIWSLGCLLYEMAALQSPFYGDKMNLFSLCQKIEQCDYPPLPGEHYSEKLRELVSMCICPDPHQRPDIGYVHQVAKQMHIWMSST
# PRKCI (human) = PRKCI (human) (UniProt P41743)
# MAPK10 (human) = MAPK10 (human) (UniProt P53779)
# PIM1 (human) = PIM1 (human) (UniProt P11309)
# Chain of PIM1 (human) (P11309 whole entry, looked up): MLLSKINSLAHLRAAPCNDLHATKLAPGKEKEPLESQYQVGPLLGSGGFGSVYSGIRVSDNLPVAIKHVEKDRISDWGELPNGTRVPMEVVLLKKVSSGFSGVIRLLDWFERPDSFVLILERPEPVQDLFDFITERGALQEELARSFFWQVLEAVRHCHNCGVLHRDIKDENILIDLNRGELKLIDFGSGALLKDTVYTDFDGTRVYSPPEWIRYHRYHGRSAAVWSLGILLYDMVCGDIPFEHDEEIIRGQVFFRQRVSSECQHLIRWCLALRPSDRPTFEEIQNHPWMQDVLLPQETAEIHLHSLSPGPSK
# PRKD1 (human) = PRKD1 (human) (UniProt Q15139)
# PRKCB1 (human) = PRKCB1 (human) (UniProt P05771)
# CAMKK1 (human) = CAMKK1 (human) (UniProt Q8N5S9)
# SYK (human) = SYK (human) (UniProt P43405)
# CDK3 CCNE1 (human) = CDK3 CCNE1 (human) (UniProt Q00526+P24864)
# YES1 (human) = YES1 (human) (UniProt P07947)
# MARK3 (human) = MARK3 (human) (UniProt P27448)
# FLT3 (human) = FLT3 (human) (UniProt P36888)
# TSSK2 (human) = TSSK2 (human) (UniProt Q96PF2)
# CSNK1G1 (human) = CSNK1G1 (human) (UniProt Q9HCP0)
# LIMK1 (human) = LIMK1 (human) (UniProt P53667)
# DYRK2 (human) = DYRK2 (human) (UniProt Q92630)
# PRKX (human) = PRKX (human) (UniProt P51817)
# Chain of PRKX (human) (P51817 whole entry, looked up): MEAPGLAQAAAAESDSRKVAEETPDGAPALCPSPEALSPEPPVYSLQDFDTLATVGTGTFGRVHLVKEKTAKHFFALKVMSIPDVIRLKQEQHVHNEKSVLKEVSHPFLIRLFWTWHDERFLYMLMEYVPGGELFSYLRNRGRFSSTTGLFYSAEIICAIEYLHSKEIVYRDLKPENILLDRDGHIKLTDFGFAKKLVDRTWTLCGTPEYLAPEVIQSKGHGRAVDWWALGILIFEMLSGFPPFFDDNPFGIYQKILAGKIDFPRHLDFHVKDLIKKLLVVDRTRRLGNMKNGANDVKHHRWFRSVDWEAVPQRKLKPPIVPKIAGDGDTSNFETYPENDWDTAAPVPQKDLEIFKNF
# CLK3 (human) = CLK3 (human) (UniProt P49761)
# SRC (human) = SRC (human) (UniProt P12931)
# RIPK2 (human) = RIPK2 (human) (UniProt O43353)
# NLK (human) = NLK (human) (UniProt Q9UBE8)
# Chain of NLK (human) (Q9UBE8 whole entry, looked up): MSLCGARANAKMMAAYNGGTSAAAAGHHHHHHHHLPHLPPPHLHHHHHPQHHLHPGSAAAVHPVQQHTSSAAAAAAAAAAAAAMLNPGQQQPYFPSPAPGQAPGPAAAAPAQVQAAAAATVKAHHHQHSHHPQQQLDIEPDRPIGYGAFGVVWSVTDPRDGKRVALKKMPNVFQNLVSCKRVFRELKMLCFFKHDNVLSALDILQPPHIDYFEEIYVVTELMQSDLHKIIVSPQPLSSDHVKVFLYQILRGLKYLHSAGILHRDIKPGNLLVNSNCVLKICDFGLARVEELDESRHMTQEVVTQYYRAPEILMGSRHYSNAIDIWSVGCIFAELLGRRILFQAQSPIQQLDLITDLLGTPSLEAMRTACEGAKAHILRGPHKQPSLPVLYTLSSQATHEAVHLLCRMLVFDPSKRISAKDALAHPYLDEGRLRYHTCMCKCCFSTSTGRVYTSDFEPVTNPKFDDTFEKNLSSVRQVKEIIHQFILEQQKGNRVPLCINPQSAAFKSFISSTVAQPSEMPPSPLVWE
# PDGFRB (human) = PDGFRB (human) (UniProt P09619)
# NEK1 (human) = NEK1 (human) (UniProt Q96PY6)
# AKT1 (human) = AKT1 (human) (UniProt P31749)
# EPHA5 (human) = EPHA5 (human) (UniProt P54756)
# Chain of EPHA5 (human) (P54756 whole entry, looked up): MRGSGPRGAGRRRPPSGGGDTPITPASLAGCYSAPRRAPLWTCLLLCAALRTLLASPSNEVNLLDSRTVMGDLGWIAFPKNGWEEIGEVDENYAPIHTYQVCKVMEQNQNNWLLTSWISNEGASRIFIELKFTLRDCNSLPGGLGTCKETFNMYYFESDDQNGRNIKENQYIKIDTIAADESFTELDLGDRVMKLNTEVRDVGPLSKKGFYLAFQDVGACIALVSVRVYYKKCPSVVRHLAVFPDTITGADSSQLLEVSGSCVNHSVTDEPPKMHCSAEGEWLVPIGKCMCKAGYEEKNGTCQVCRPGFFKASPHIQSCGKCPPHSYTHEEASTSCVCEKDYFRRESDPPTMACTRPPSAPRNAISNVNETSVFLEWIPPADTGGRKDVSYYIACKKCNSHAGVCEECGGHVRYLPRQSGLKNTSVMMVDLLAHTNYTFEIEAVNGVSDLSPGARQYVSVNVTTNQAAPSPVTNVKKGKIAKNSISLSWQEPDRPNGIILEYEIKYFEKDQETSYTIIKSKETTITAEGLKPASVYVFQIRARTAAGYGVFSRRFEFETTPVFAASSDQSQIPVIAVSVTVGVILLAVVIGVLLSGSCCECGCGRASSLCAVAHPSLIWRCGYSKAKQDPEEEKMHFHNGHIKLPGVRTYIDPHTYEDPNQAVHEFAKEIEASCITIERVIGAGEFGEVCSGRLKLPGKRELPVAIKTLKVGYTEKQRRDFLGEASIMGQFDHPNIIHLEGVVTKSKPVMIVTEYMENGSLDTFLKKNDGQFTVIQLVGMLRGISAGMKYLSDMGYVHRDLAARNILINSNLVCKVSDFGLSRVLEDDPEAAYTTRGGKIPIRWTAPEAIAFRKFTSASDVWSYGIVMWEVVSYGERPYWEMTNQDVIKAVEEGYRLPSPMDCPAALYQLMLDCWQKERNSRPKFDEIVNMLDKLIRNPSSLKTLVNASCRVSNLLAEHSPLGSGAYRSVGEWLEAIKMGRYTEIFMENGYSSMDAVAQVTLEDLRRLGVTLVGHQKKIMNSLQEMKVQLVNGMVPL
# IRAK1 (human) = IRAK1 (human) (UniProt P51617)
# PRKCE (human) = PRKCE (human) (UniProt Q02156)
# Chain of PRKCE (human) (Q02156 whole entry, looked up): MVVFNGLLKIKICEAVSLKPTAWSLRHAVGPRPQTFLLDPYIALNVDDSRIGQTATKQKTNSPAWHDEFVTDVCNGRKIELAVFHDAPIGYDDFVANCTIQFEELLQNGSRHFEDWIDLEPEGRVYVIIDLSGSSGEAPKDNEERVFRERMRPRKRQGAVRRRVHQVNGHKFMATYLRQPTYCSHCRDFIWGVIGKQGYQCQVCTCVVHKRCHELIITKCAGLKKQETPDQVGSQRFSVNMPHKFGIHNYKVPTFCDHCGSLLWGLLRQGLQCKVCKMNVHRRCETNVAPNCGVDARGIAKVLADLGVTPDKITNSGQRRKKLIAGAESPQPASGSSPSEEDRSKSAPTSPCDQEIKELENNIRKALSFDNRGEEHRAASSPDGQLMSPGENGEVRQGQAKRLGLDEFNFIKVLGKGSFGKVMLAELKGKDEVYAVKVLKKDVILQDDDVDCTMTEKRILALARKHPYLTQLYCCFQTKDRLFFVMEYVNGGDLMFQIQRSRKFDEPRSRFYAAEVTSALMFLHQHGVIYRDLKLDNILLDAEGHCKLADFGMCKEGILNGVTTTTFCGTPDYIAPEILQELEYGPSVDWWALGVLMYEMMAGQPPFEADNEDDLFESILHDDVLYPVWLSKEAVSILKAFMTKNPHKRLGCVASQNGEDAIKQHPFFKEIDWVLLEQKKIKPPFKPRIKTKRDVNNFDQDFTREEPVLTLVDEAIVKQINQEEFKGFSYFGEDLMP
# MAP4K2 (human) = MAP4K2 (human) (UniProt Q12851)
# IRAK4 (human) = IRAK4 (human) (UniProt Q9NWZ3)
# CSNK1A1 (human) = CSNK1A1 (human) (UniProt P48729)
# EPHB3 (human) = EPHB3 (human) (UniProt P54753)
# SRPK1 (human) = SRPK1 (human) (UniProt Q96SB4)
# NEK11 (human) = NEK11 (human) (UniProt Q8NG66)
# MAP3K5 (human) = MAP3K5 (human) (UniProt Q99683)
# INSRR (human) = INSRR (human) (UniProt P14616)
# RPS6KA4 KD2 (human) = RPS6KA4 KD2 (human) (UniProt O75676)
# Chain of RPS6KA4 KD2 (human) (O75676 whole entry, looked up): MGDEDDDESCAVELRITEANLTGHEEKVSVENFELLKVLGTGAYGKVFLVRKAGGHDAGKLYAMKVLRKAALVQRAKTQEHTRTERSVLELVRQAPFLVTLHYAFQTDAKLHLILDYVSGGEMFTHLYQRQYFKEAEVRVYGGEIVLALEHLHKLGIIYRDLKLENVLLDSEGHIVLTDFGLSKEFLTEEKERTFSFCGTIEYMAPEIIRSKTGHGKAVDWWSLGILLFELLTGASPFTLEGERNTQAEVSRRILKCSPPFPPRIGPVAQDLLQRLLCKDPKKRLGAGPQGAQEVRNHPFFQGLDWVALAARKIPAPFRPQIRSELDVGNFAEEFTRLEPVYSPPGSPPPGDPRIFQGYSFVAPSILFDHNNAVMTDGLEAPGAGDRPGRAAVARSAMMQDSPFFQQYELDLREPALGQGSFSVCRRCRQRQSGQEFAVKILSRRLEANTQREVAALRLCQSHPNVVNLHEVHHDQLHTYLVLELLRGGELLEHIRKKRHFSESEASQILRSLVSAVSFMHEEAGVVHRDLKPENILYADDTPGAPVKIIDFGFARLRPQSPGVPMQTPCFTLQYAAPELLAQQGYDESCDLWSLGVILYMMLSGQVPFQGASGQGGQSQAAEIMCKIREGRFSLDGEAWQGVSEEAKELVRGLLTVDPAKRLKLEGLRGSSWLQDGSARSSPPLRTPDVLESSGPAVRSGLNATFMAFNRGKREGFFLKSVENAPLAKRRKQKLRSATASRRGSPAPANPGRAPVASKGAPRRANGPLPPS
# FER (human) = FER (human) (UniProt P16591)
# Chain of EPHB1 (human) (P54762 whole entry, looked up): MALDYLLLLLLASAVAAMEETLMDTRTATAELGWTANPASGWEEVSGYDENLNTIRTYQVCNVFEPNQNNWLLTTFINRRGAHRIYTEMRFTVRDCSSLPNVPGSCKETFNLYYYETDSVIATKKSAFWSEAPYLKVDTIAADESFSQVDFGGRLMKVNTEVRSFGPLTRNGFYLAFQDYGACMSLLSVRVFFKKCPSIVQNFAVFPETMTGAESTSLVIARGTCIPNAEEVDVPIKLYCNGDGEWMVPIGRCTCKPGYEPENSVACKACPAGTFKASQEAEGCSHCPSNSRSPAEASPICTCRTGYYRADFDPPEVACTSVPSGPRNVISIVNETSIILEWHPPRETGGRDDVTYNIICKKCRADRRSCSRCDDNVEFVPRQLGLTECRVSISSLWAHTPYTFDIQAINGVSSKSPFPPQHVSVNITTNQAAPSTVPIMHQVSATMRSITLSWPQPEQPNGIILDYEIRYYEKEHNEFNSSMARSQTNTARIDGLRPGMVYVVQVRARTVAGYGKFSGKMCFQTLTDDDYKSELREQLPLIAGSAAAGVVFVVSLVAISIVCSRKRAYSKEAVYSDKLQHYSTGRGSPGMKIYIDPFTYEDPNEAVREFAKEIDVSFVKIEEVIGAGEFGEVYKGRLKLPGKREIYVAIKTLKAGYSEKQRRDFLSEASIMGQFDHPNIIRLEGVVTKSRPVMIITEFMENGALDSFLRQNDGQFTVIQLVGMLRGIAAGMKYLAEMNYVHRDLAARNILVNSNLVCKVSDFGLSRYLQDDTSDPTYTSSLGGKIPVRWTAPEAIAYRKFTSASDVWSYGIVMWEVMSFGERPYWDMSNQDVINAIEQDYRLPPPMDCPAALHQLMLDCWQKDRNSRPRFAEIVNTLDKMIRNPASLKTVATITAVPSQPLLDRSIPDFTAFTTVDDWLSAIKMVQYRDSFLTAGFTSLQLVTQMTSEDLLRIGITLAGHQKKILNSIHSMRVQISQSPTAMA
smiles,measurement,setting,value
c1ccc(-c2cnc(Nc3ccc(OCCN4CCCC4)cc3)s2)cc1,residual activity,GRK6 (human),96.1%
same,residual activity,RPS6KA5 KD2 (human),104%
same,residual activity,NEK3 (human),92.9%
same,residual activity,EPHB1 (human),95.4%
same,residual activity,ADRBK2 (human),103%
same,residual activity,NEK6 (human),102%
same,residual activity,PRKCI (human),93.1%
same,residual activity,MAPK10 (human),92.9%
same,residual activity,PIM1 (human),100%
same,residual activity,PRKD1 (human),78.4%
same,residual activity,PRKCB1 (human),108%
same,residual activity,CAMKK1 (human),56.6%
same,residual activity,SYK (human),89.2%
same,residual activity,CDK3 CCNE1 (human),97.6%
same,residual activity,YES1 (human),42.1%
same,residual activity,MARK3 (human),93.1%
same,residual activity,FLT3 (human),3.1%
same,residual activity,TSSK2 (human),89%
same,residual activity,CSNK1G1 (human),94.7%
same,residual activity,LIMK1 (human),66.9%
same,residual activity,DYRK2 (human),95%
same,residual activity,PRKX (human),101%
same,residual activity,CLK3 (human),94.3%
same,residual activity,SRC (human),75.3%
same,residual activity,RIPK2 (human),50.4%
same,residual activity,NLK (human),89.7%
same,residual activity,PDGFRB (human),28.5%
same,residual activity,NEK1 (human),94.2%
same,residual activity,AKT1 (human),101%
same,residual activity,EPHA5 (human),97%
same,residual activity,IRAK1 (human),109%
same,residual activity,PRKCE (human),90.5%
same,residual activity,MAP4K2 (human),113%
same,residual activity,IRAK4 (human),86.1%
same,residual activity,CSNK1A1 (human),86.7%
same,residual activity,EPHB3 (human),93.3%
same,residual activity,SRPK1 (human),99.9%
same,residual activity,NEK11 (human),95%
same,residual activity,MAP3K5 (human),91.1%
same,residual activity,INSRR (human),99.6%
same,residual activity,RPS6KA4 KD2 (human),96.1%
same,residual activity,FER (human),90%
Nc1ncnc2c1cnn2-c1ccccc1,residual activity,GRK6 (human),92.3%
same,residual activity,RPS6KA5 KD2 (human),89%
same,residual activity,NEK3 (human),93.5%
same,residual activity,EPHB1 (human),97.5%
same,residual activity,ADRBK2 (human),105%
same,residual activity,NEK6 (human),114%
same,residual activity,PRKCI (human),97.3%
same,residual activity,MAPK10 (human),100%
same,residual activity,PIM1 (human),99.4%
same,residual activity,PRKD1 (human),98.1%
same,residual activity,PRKCB1 (human),95.2%
same,residual activity,CAMKK1 (human),84.8%
same,residual activity,SYK (human),96%
same,residual activity,CDK3 CCNE1 (human),96.2%
same,residual activity,YES1 (human),93.7%
same,residual activity,MARK3 (human),86.1%
same,residual activity,FLT3 (human),88.9%
same,residual activity,TSSK2 (human),106%
same,residual activity,CSNK1G1 (human),94.8%
same,residual activity,LIMK1 (human),89.1%
same,residual activity,DYRK2 (human),95.6%
same,residual activity,PRKX (human),95.3%
same,residual activity,CLK3 (human),96.1%
same,residual activity,SRC (human),96.9%
same,residual activity,RIPK2 (human),93.1%
same,residual activity,NLK (human),92.5%
same,residual activity,PDGFRB (human),94.7%
same,residual activity,NEK1 (human),62.4%
same,residual activity,AKT1 (human),103%
same,residual activity,EPHA5 (human),95.6%
same,residual activity,IRAK1 (human),85.8%
same,residual activity,PRKCE (human),98.3%
same,residual activity,MAP4K2 (human),94.9%
same,residual activity,IRAK4 (human),89.4%
same,residual activity,CSNK1A1 (human),79.8%
same,residual activity,EPHB3 (human),93.5%
same,residual activity,SRPK1 (human),98.1%
same,residual activity,NEK11 (human),107%
same,residual activity,MAP3K5 (human),100%
same,residual activity,INSRR (human),106%
same,residual activity,RPS6KA4 KD2 (human),106%
same,residual activity,FER (human),99%
FC(F)(F)c1ccc(/C=C/c2nc(COc3ccc(CCCCn4ccnn4)cc3)co2)cc1,residual activity,GRK6 (human),104%
same,residual activity,RPS6KA5 KD2 (human),111%
same,residual activity,NEK3 (human),100%
same,residual activity,EPHB1 (human),99.4%
same,residual activity,ADRBK2 (human),104%
same,residual activity,NEK6 (human),92.6%
same,residual activity,PRKCI (human),92.6%
same,residual activity,MAPK10 (human),94.6%
same,residual activity,PIM1 (human),102%
same,residual activity,PRKD1 (human),93.2%
same,residual activity,PRKCB1 (human),103%
same,residual activity,CAMKK1 (human),96.7%
same,residual activity,SYK (human),97.4%
same,residual activity,CDK3 CCNE1 (human),91%
same,residual activity,YES1 (human),85%
same,residual activity,MARK3 (human),96.6%
same,residual activity,FLT3 (human),87.8%
same,residual activity,TSSK2 (human),100%
same,residual activity,CSNK1G1 (human),100%
same,residual activity,LIMK1 (human),99.2%
same,residual activity,DYRK2 (human),110%
same,residual activity,PRKX (human),95.3%
same,residual activity,CLK3 (human),92.2%
same,residual activity,SRC (human),92.5%
same,residual activity,RIPK2 (human),109%
same,residual activity,NLK (human),101%
same,residual activity,PDGFRB (human),98.1%
same,residual activity,NEK1 (human),94.5%
same,residual activity,AKT1 (human),93.2%
same,residual activity,EPHA5 (human),99.9%
same,residual activity,IRAK1 (human),99.5%
same,residual activity,PRKCE (human),101%
same,residual activity,MAP4K2 (human),105%
same,residual activity,IRAK4 (human),97.7%
same,residual activity,CSNK1A1 (human),98.4%
same,residual activity,EPHB3 (human),94.9%
same,residual activity,SRPK1 (human),98.1%
same,residual activity,NEK11 (human),97.6%
same,residual activity,MAP3K5 (human),97.2%
same,residual activity,INSRR (human),101%
same,residual activity,RPS6KA4 KD2 (human),105%
same,residual activity,FER (human),102%
Cn1cc(/C=C2\C(=O)Nc3ccc(S(N)(=O)=O)cc32)c2ccccc21,residual activity,GRK6 (human),47.2%
same,residual activity,RPS6KA5 KD2 (human),80.9%
same,residual activity,NEK3 (human),66.2%
same,residual activity,EPHB1 (human),68.7%
same,residual activity,ADRBK2 (human),111%
same,residual activity,NEK6 (human),98.6%
same,residual activity,PRKCI (human),99.6%
same,residual activity,MAPK10 (human),93.1%
same,residual activity,PIM1 (human),96.5%
same,residual activity,PRKD1 (human),80%
same,residual activity,PRKCB1 (human),114%
same,residual activity,CAMKK1 (human),44.9%
same,residual activity,SYK (human),16.5%
same,residual activity,CDK3 CCNE1 (human),90.3%
same,residual activity,YES1 (human),24.2%
same,residual activity,MARK3 (human),57.2%
same,residual activity,FLT3 (human),1.56%
same,residual activity,TSSK2 (human),84%
same,residual activity,CSNK1G1 (human),88.3%
same,residual activity,LIMK1 (human),74.1%
same,residual activity,DYRK2 (human),85.5%
same,residual activity,PRKX (human),81%
same,residual activity,CLK3 (human),81.4%
same,residual activity,SRC (human),45.1%
same,residual activity,RIPK2 (human),74.3%
same,residual activity,NLK (human),90.4%
same,residual activity,PDGFRB (human),66%
same,residual activity,NEK1 (human),68.5%
same,residual activity,AKT1 (human),105%
same,residual activity,EPHA5 (human),69.3%
same,residual activity,IRAK1 (human),14.2%
same,residual activity,PRKCE (human),77.3%
same,residual activity,MAP4K2 (human),17.4%
same,residual activity,IRAK4 (human),2.98%
same,residual activity,CSNK1A1 (human),105%
same,residual activity,EPHB3 (human),93.2%
same,residual activity,SRPK1 (human),69%
same,residual activity,NEK11 (human),96.1%
same,residual activity,MAP3K5 (human),53.2%
same,residual activity,INSRR (human),86.9%
same,residual activity,RPS6KA4 KD2 (human),71.2%
same,residual activity,FER (human),20%
